Patent US20260274835A1, “A3 ADENOSINE RECEPTOR POSITIVE ALLOSTERIC MODULATORS” (The Medical College of Wisconsin, Inc., priority 2022, published 2026)

Target: T1, WT hA3ARs (Homo sapiens, UniProt P0DMS8)
T1 construct: The full-length mouse (as previously described^25), human (purchased from the cDNA Resource Center), and human/mouse chimeric
T1 sequence (P0DMS8 1-318): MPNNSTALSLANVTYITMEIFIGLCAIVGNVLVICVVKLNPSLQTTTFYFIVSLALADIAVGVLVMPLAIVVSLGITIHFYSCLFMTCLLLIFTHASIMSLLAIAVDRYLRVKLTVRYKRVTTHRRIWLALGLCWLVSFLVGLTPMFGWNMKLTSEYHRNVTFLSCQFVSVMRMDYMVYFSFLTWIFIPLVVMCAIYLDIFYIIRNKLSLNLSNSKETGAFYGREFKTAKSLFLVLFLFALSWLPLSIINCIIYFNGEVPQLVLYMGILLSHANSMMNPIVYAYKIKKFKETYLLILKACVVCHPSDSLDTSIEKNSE
Assay: [35S]GTPγS binding assay, Cl-IB-MECA concentration-response with modulator, HEK293 cell membranes
Assay type: biochemical
Conditions: for Emax (%): PAM derivative 1.0 μM, [35S]GTPγS binding induced by Cl-IB-MECA, WT hA3ARs, mean ± SEM, n = 3; for Emax (%) / IC50 ratio: Table 3; for IC50 ratio: ratio of IC50 values for Cl-IB-MECA, DMSO control compared to 100 nM PAM derivative
From the text: Creation of stable HEK293 cell lines expressing wild-type and human/mouse chimeric A3ARs: The full-length mouse (as previously described^25), human (purchased from the cDNA Resource Center), and human/mouse chimeric (custom synthesized by TOP Gene Technologies, St. Laurent, Quebec) A3AR cDNAs were subcloned into pcDNA3.1. The constructs were transfected into HEK293 cells (American Type Culture Collection, Manassas, VA) using Lipofectamine 2000 reagent (Invitrogen, Waltham, MA) and selected with 2 mg/ml of G418 in cell culture media (DMEM with 10% fetal bovine serum, 100 units/ml penicillin, and 100 μg/ml streptomycin). Cell lines derived from individual clones were maintained in cell culture media containing 0.6 mg/ml G418.
Membrane preparations: Transfected HEK293 cells were washed with PBS followed by homogenization in Buffer A containing 10 mM Na+-HEPES, 10 mM EDTA, 1 mM benzamidine (pH 7.4) and centrifugation at 27,000×g for 30 min at 4° C. Cell pellets were subsequently re-homogenized in HE buffer containing 10 mM Na+-HEPES, 1 mM EDTA, 1 mM benzamidine (pH 7.4) and re-centrifuged. The supernatant was discarded, and cell pellets were resuspended in HE buffer containing 10% sucrose and stored at −20° C.
[^35S]GTPγS binding assays: Cell membranes (5 μg protein) isolated from transfected HEK293 cells were pre-treated with modulators for one hour in 100 μl GTPγS binding buffer (50 mM Tris HCL [pH 7.4], 1 mM EGTA, 10 mM MgCl2, 100 mM NaCl, 0.004% CHAPS, and 0.5% BSA) in a 96-well large-volume polypropylene assay plate. In all assays, ZM-241385 (300 nM) and PSB-603 (300 nM) were included to block A2BARs expressed endogenously in HEK293 cells. Adenosine deaminase (ADA) (1 μl/ml) was also included to degrade any endogenous adenosine that might be produced during the assay, except when adenosine was used as the orthosteric agonist. The reactions were initiated by the addition of ~0.2 nM [^35S]GTPγS and agonist in 100 μl GTPγS binding buffer and allowed to incubate for two hours at room temperature. At the end of the two-hour incubation period, the membranes were harvested by rapid filtration through Whatman GF/B filters that had been pre-soaked for two hours in GTPγS binding buffer containing 0.02% CHAPS using a 96-well cell harvester (Brandel, Gaithersburg, MD). Radioactivity trapped in the filters was measured by liquid scintillation counting. Non-specific binding of [^35S]GTPγS was determined in the presence of 10 μM unlabeled GTPγS.
Data Analysis: EMax and EC50 values were calculated from data obtained from agonist concentration-response curves according to: E=([…])/(EC50+x), in which x is the agonist concentration. All values were statistically compared using a two-tailed unpaired Student's t-test or two-tailed paired Student's t-test, as indicated. For dissociation binding assays, fit to a one-phase exponential decay model: Y=(Y0−NS)^(−kxt), in which Y0 is specific binding at time 0, k is the dissociation rate constant, and t is the elapsed time. All values are presented as the mean±SEM. A p value <0.05 was considered statistically significant.
The two series of modulators were evaluated in a [^35S]GTPγS binding assay using isolated HEK293 cell membranes expressing the h A3AR, which detects receptor-induced G protein activation. For these studies, concentration-response curves with the orthosteric agonist Cl-IB-MECA were assessed in the presence of vehicle or 0.1, 1, or 10 μM modulator compound.

[1] = increasing concentrations of modulator (0.1, 1, 10 μM)

| SMILES | Emax (%) | IC50 ratio | effect on EC50 (potency) of agonist Cl-IB-MECA, in words [1] | effect on Emax (efficacy) of agonist Cl-IB-MECA, in words [1] |
| --- | --- | --- | --- | --- |
| Clc1ccc(Oc2nc3ccccc3c3[nH]c(C4CCCCC4)nc23)cc1Cl [46 (RK007-4-1, BS1006)] | 150.6 ± 5.8 | 0.738 |  |  |
| OCCn1c(C2CCCCC2)nc2c(Nc3ccc(Cl)c(Cl)c3)nc3ccccc3c21 [36 (MRS8236)] | 119.3 ± 6.2 | 0.764 |  |  |
| Clc1ccc(Nc2nc3ccccc3c3oc(C4CCCCC4)nc23)cc1Cl [41 (RK005-84-1, BS1002)] | 149.9 ± 8.8 | 0.406 |  |  |
| Cn1c(C2CCCCC2)nc2c(Nc3ccc(Cl)c(Cl)c3)nc3ccccc3c21 [35 (MRS8206)] | 177.8 ± 11.5 | 1.12 |  |  |
| Clc1ccc(Nc2nc3ccccc3c3sc(C4CCCCC4)nc23)cc1Cl [42 (RK005-79-1, BS1001)] | 192.6 ± 11.2 | 0.505 |  |  |
| Clc1ccc(Sc2nc3ccccc3c3[nH]c(C4CCCCC4)nc23)cc1Cl [47 (RK007-2-1, BS1005)] | 137.6 ± 7.3 | 1.11 |  |  |
| CN(c1ccc(Cl)c(Cl)c1)c1nc2ccccc2c2[nH]c(C3CCCCC3)nc12 [45 (RK006-100-1, BS1007)] | 127.0 ± 6.0 | 0.491 |  |  |
| O=C(Nc1cc(Nc2ccc(Cl)c(Cl)c2)nc2ccccc12)C1CCCCC1 [LUF6096, reference compound] |  |  | without reducing the potency of CI-IB-MECA | produced the greatest increase in efficacy |
